Assay results: the NIST ThermoML archive (doi:10.1016/j.jct.2019.02.028)
Values joined by “and” are separate entries in the source; they are usually repeats but may differ in a detail not shown here. Identical values can stand only once. ± gives the expanded uncertainty stated by the source.

Assay: xn = mol fraction of the nth substance listed
Conditions: Gas, Burnett expansion method

**Q.** What does the source list for C=C(F)C(F)(F)F [2,3,3,3-tetrafluoro-1-propene] + FCF?
**A.** mass density (373.17 K, 4066.8 kPa, x2 = 0.259): 238.02 ± 2.8 kg/m3; mass density (373.17 K, 4925.9 kPa, x2 = 0.874): 143.64 ± 2.3 kg/m3; mass density (373.18 K, 619.83 kPa, x2 = 0.259): 20.68 ± 0.16 kg/m3; mass density (373.18 K, 900.76 kPa, x2 = 0.449): 26.92 ± 0.23 kg/m3; mass density (373.18 K, 906.18 kPa, x2 = 0.259): 31.05 ± 0.22 kg/m3; mass density (373.18 K, 916.21 kPa, x2 = 0.874): 18.76 ± 0.21 kg/m3; mass density (373.18 K, 1093.4 kPa, x2 = 0.119): 41.92 ± 0.24 kg/m3; mass density (373.18 K, 1339 kPa, x2 = 0.874): 28.18 ± 0.32 kg/m3; mass density (373.18 K, 1863.1 kPa, x2 = 0.449): 60.74 ± 0.57 kg/m3; mass density (373.18 K, 2517.6 kPa, x2 = 0.259): 105.24 ± 1.2 kg/m3; mass density (373.18 K, 2728.4 kPa, x2 = 0.874): 63.56 ± 0.72 kg/m3; mass density (373.18 K, 3301.3 kPa, x2 = 0.259): 158.31 ± 2.2 kg/m3; mass density (373.19 K, 755.34 kPa, x2 = 0.119): 27.91 ± 0.14 kg/m3; mass density (373.19 K, 1931.1 kPa, x2 = 0.874): 42.32 ± 0.49 kg/m3; mass density (373.19 K, 2828.2 kPa, x2 = 0.119): 142.15 ± 1.3 kg/m3; mass density (373.2 K, 624.61 kPa, x2 = 0.874): 12.49 ± 0.15 kg/m3; mass density (373.2 K, 3505 kPa, x2 = 0.119): 213.51 ± 3.3 kg/m3; mass density (373.2 K, 4006.2 kPa, x2 = 0.119): 320.47 ± 6.9 kg/m3; mass density (373.2 K, 4661.9 kPa, x2 = 0.259): 359.6 ± 5 kg/m3; mass density (373.21 K, 1306.4 kPa, x2 = 0.259): 46.64 ± 0.34 kg/m3; mass density (378.05 K, 2079.9 kPa, x2 = 0.698): 53.99 ± 0.5 kg/m3; mass density (378.06 K, 1451.7 kPa, x2 = 0.698): 35.94 ± 0.32 kg/m3; mass density (378.07 K, 5426.1 kPa, x2 = 0.449): 308.92 ± 3.2 kg/m3; mass density (378.08 K, 622.36 kPa, x2 = 0.449): 17.91 ± 0.16 kg/m3; mass density (378.08 K, 2782.2 kPa, x2 = 0.874): 63.55 ± 0.72 kg/m3; mass density (378.08 K, 2911.8 kPa, x2 = 0.698): 81.09 ± 0.78 kg/m3; mass density (378.08 K, 3552.8 kPa, x2 = 0.449): 136.97 ± 1.5 kg/m3; mass density (378.08 K, 4525.2 kPa, x2 = 0.449): 205.67 ± 2.4 kg/m3; mass density (378.09 K, 1328.7 kPa, x2 = 0.449): 40.42 ± 0.36 kg/m3; mass density (378.09 K, 1878.5 kPa, x2 = 0.259): 70.04 ± 0.61 kg/m3; mass density (378.09 K, 2649.2 kPa, x2 = 0.449): 91.19 ± 0.93 kg/m3; mass density (378.09 K, 3936.7 kPa, x2 = 0.698): 121.78 ± 1.5 kg/m3; mass density (378.09 K, 4937.5 kPa, x2 = 0.259): 358.03 ± 3.3 kg/m3; mass density (378.09 K, 5074.6 kPa, x2 = 0.698): 182.93 ± 2.3 kg/m3; mass density (378.1 K, 678.04 kPa, x2 = 0.698): 15.93 ± 0.14 kg/m3; mass density (378.1 K, 920.5 kPa, x2 = 0.259): 31.05 ± 0.22 kg/m3; mass density (378.1 K, 997.84 kPa, x2 = 0.698): 23.93 ± 0.21 kg/m3; mass density (378.1 K, 1582.4 kPa, x2 = 0.119): 62.96 ± 0.36 kg/m3; mass density (378.1 K, 1897.6 kPa, x2 = 0.449): 60.71 ± 0.56 kg/m3; mass density (378.1 K, 2190.4 kPa, x2 = 0.119): 94.57 ± 0.59 kg/m3; mass density (378.1 K, 3832.4 kPa, x2 = 0.874): 95.49 ± 1.1 kg/m3; mass density (378.1 K, 4232.9 kPa, x2 = 0.259): 237.67 ± 2.6 kg/m3; mass density (378.1 K, 5071.5 kPa, x2 = 0.874): 143.48 ± 2.2 kg/m3; mass density (378.11 K, 629.16 kPa, x2 = 0.259): 20.67 ± 0.16 kg/m3; mass density (378.11 K, 767.1 kPa, x2 = 0.119): 27.9 ± 0.14 kg/m3; mass density (378.11 K, 914.69 kPa, x2 = 0.449): 26.91 ± 0.23 kg/m3; mass density (378.11 K, 1360.2 kPa, x2 = 0.874): 28.17 ± 0.32 kg/m3; mass density (378.11 K, 1964.7 kPa, x2 = 0.874): 42.31 ± 0.49 kg/m3; mass density (378.11 K, 2577.3 kPa, x2 = 0.259): 105.22 ± 1.2 kg/m3; mass density (378.11 K, 2909.1 kPa, x2 = 0.119): 142.06 ± 1.3 kg/m3; mass density (378.12 K, 633.28 kPa, x2 = 0.874): 12.49 ± 0.15 kg/m3; mass density (378.12 K, 929.88 kPa, x2 = 0.874): 18.75 ± 0.21 kg/m3; mass density (378.12 K, 1329.1 kPa, x2 = 0.259): 46.64 ± 0.34 kg/m3; mass density (378.12 K, 3399.6 kPa, x2 = 0.259): 158.16 ± 2.1 kg/m3; mass density (378.12 K, 3642.1 kPa, x2 = 0.119): 213.38 ± 3 kg/m3; mass density (378.12 K, 4237.1 kPa, x2 = 0.119): 320.38 ± 5.9 kg/m3; mass density (378.13 K, 1112 kPa, x2 = 0.119): 41.91 ± 0.24 kg/m3; mass density (382.98 K, 1475.1 kPa, x2 = 0.698): 35.93 ± 0.32 kg/m3; mass density (382.98 K, 2117.2 kPa, x2 = 0.698): 53.97 ± 0.49 kg/m3; mass density (382.99 K, 631.25 kPa, x2 = 0.449): 17.91 ± 0.16 kg/m3; mass density (383 K, 1350.2 kPa, x2 = 0.449): 40.4 ± 0.35 kg/m3; mass density (383 K, 2705.6 kPa, x2 = 0.449): 91.15 ± 0.92 kg/m3; mass density (383 K, 2835.7 kPa, x2 = 0.874): 63.53 ± 0.72 kg/m3; mass density (383 K, 3918.9 kPa, x2 = 0.874): 95.42 ± 1.1 kg/m3; mass density (383 K, 4682.2 kPa, x2 = 0.449): 205.63 ± 2.3 kg/m3; mass density (383 K, 5686.5 kPa, x2 = 0.449): 308.85 ± 3.3 kg/m3; mass density (383.01 K, 928.35 kPa, x2 = 0.449): 26.9 ± 0.23 kg/m3; mass density (383.01 K, 1476 kPa, x2 = 0.698): 35.93 ± 0.32 kg/m3; mass density (383.01 K, 2118 kPa, x2 = 0.698): 53.97 ± 0.49 kg/m3; mass density (383.01 K, 2705.6 kPa, x2 = 0.449): 91.15 ± 0.92 kg/m3; mass density (383.01 K, 2972.2 kPa, x2 = 0.698): 81.06 ± 0.77 kg/m3; mass density (383.01 K, 3646.5 kPa, x2 = 0.449): 136.9 ± 1.5 kg/m3; mass density (383.01 K, 4036.2 kPa, x2 = 0.698): 121.75 ± 1.5 kg/m3; mass density (383.01 K, 4682.4 kPa, x2 = 0.449): 205.63 ± 2.3 kg/m3; mass density (383.01 K, 5245.7 kPa, x2 = 0.698): 182.87 ± 2.2 kg/m3; mass density (383.02 K, 928.34 kPa, x2 = 0.449): 26.9 ± 0.23 kg/m3; mass density (383.02 K, 1012.8 kPa, x2 = 0.698): 23.92 ± 0.21 kg/m3; mass density (383.02 K, 1381.5 kPa, x2 = 0.874): 28.16 ± 0.32 kg/m3; mass density (383.02 K, 1914.9 kPa, x2 = 0.259): 70.04 ± 0.65 kg/m3; mass density (383.02 K, 1937.6 kPa, x2 = 0.449): 60.69 ± 0.56 kg/m3; mass density (383.02 K, 1937.7 kPa, x2 = 0.449): 60.69 ± 0.56 kg/m3; mass density (383.02 K, 2238 kPa, x2 = 0.119): 94.52 ± 0.66 kg/m3; mass density (383.02 K, 2635.6 kPa, x2 = 0.259): 105.19 ± 1.1 kg/m3; mass density (383.02 K, 2635.8 kPa, x2 = 0.259): 105.19 ± 1.1 kg/m3; mass density (383.02 K, 2972.4 kPa, x2 = 0.698): 81.06 ± 0.77 kg/m3; mass density (383.02 K, 3646.6 kPa, x2 = 0.449): 136.9 ± 1.5 kg/m3; mass density (383.02 K, 3919.7 kPa, x2 = 0.874): 95.42 ± 1.1 kg/m3; mass density (383.02 K, 4035.8 kPa, x2 = 0.698): 121.75 ± 1.5 kg/m3; mass density (383.02 K, 4396.6 kPa, x2 = 0.259): 237.32 ± 2.4 kg/m3; mass density (383.02 K, 5211.2 kPa, x2 = 0.259): 356.45 ± 6.4 kg/m3 and 356.44 ± 6.4 kg/m3; mass density (383.02 K, 5215.7 kPa, x2 = 0.874): 143.31 ± 2.2 kg/m3; mass density (383.02 K, 5215.8 kPa, x2 = 0.874): 143.31 ± 2.2 kg/m3; mass density (383.02 K, 5245.8 kPa, x2 = 0.698): 182.87 ± 2.2 kg/m3; mass density (383.03 K, 934.81 kPa, x2 = 0.259): 31.04 ± 0.22 kg/m3; mass density (383.03 K, 1350.5 kPa, x2 = 0.449): 40.4 ± 0.35 kg/m3; mass density (383.03 K, 1351.5 kPa, x2 = 0.259): 46.63 ± 0.34 kg/m3; mass density (383.03 K, 1381.4 kPa, x2 = 0.874): 28.16 ± 0.32 kg/m3; mass density (383.03 K, 1611.8 kPa, x2 = 0.119): 62.93 ± 0.39 kg/m3; mass density (383.03 K, 1611.9 kPa, x2 = 0.119): 62.93 ± 0.39 kg/m3; mass density (383.03 K, 1915 kPa, x2 = 0.259): 70.04 ± 0.65 kg/m3; mass density (383.03 K, 1998.1 kPa, x2 = 0.874): 42.29 ± 0.48 kg/m3; mass density (383.03 K, 2238.3 kPa, x2 = 0.119): 94.52 ± 0.66 kg/m3; mass density (383.03 K, 2836.1 kPa, x2 = 0.874): 63.53 ± 0.72 kg/m3; mass density (383.03 K, 2989.1 kPa, x2 = 0.119): 141.97 ± 1.2 kg/m3; mass density (383.03 K, 3496.5 kPa, x2 = 0.259): 158 ± 2.1 kg/m3; mass density (383.03 K, 3777.6 kPa, x2 = 0.119): 213.24 ± 2.7 kg/m3; mass density (383.03 K, 4397.4 kPa, x2 = 0.259): 237.31 ± 2.4 kg/m3; mass density (383.03 K, 4464.7 kPa, x2 = 0.119): 320.28 ± 5.2 kg/m3; mass density (383.03 K, 4465 kPa, x2 = 0.119): 320.28 ± 5.2 kg/m3; mass density (383.04 K, 638.24 kPa, x2 = 0.259): 20.67 ± 0.16 kg/m3; mass density (383.04 K, 642.12 kPa, x2 = 0.874): 12.48 ± 0.15 kg/m3; mass density (383.04 K, 688.17 kPa, x2 = 0.698): 15.93 ± 0.14 kg/m3; mass density (383.04 K, 778.8 kPa, x2 = 0.119): 27.9 ± 0.14 kg/m3; mass density (383.04 K, 943.49 kPa, x2 = 0.874): 18.75 ± 0.21 kg/m3; mass density (383.04 K, 1130.2 kPa, x2 = 0.119): 41.9 ± 0.25 kg/m3; mass density (383.04 K, 1998.1 kPa, x2 = 0.874): 42.29 ± 0.48 kg/m3; mass density (383.04 K, 2989.2 kPa, x2 = 0.119): 141.97 ± 1.2 kg/m3; mass density (383.04 K, 3777.7 kPa, x2 = 0.119): 213.24 ± 2.7 kg/m3; mass density (383.05 K, 943.52 kPa, x2 = 0.874): 18.75 ± 0.21 kg/m3; mass density (383.05 K, 3496.8 kPa, x2 = 0.259): 158 ± 2.1 kg/m3; mass density (383.06 K, 935.34 kPa, x2 = 0.259): 31.04 ± 0.22 kg/m3; mass density (383.06 K, 1130.4 kPa, x2 = 0.119): 41.9 ± 0.25 kg/m3
